Series [1] has as its system SUDHL10. As to the kind of experiment: Induction of caspase-3/7 activity (Caspase-Glo 3/7), SUDHL10. Format: cell-based. Particulars: caspase-3/7 induction, SUDHL10 cells, 3 h treatment, median. A digest of the protocol:
(§1)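 Apoptosis induction measured as caspase-3/7 activity (Caspase-Glo 3/7) in DLBCL lines after 3 h treatment at 37 °C; EC50 derived relative to the reference compound's maximal induction, with C0 fixed at 1.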

Series [2] deals with SUDHL5. As to the kind of experiment: Induction of caspase-3/7 activity (Caspase-Glo 3/7), SUDHL5. Format: cell-based. The following applies: caspase-3/7 induction, SUDHL5 cells, 3 h treatment, median. A digest of the protocol: as §1
In series [3] the test system is SUDHL10. As to the kind of experiment: Induction of cytotoxicity (CellTiter-Glo, 5 h), SUDHL10. (ATP-based viability assays read luminescence as a measure of living cells.)
The test system of series [4] is MV-4-11. The experiment in a line: Anti-proliferative effect (CellTiter-Glo, 72 h), MV-4-11. Format: cell-based. The following applies: MV-4-11 cells, median, read-out: IC50 antiproliferation assay MV-4-11 [M] (median). A digest of the protocol: (§2)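 Luminescence from CellTiter-Glo, read 10 min after reagent addition, reports viable cell content after 72 h of compound treatment at 37 °C. A reference plate read at day 0 gives the starting baseline.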

The test system of series [5] is SUDHL5. The experiment in a line: Anti-proliferative effect (CellTiter-Glo, 72 h), SUDHL5. Format: cell-based. Particulars: SUDHL5 cells, antiproliferation, median, read-out: Antiproli SUDHL5 [M] (median). Summed up: as §2
The test system of series [6] is A2780. As to the kind of experiment: Anti-proliferative effect (CellTiter-Glo, 72 h), A2780. Particulars: A2780 cells, median, read-out: IC50 antiproliferation assay A2780 [M] (median). Format: cell-based. Summed up:
as §2

The test system of series [7] is SUDHL5. The experiment in a line: Induction of cytotoxicity (CellTiter-Glo, 5 h), SUDHL5.
Series [8] deals with MCL-1 (Homo sapiens, UniProt Q07820). The experiment in a line: Protein-protein interaction assay MCL-1/Noxa BH3 peptide (MCL-1 assay), TR-FRET. Format: binding. Particulars: MBP-MCL-1 / Noxa BH3-derived peptide, median. A digest of the protocol: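 Inhibition values were normalized between DMSO controls with all reagents and controls lacking MCL-1. The binding competition used 1 nM MBP-MCL-1 in pH 7 Tris buffer containing 50 mM KF and 100 mM NaCl, with a 10 min compound preincubation at 22 °C.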
Sequence of MCL-1 (Q07820 whole entry): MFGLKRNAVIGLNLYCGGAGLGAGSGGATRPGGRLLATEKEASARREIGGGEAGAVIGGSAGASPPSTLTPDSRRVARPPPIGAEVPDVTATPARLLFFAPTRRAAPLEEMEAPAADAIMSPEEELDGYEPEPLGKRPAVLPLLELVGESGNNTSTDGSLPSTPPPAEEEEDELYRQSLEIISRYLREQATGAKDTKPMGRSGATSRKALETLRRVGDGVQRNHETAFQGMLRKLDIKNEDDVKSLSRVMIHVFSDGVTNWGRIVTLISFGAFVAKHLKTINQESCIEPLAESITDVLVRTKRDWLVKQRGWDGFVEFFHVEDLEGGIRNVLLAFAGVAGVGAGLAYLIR

The mark [9] stands for this setting: Homo sapiens, SU-DHL10, 5 h, read-out: Cytotox SUDHL10 [M] (median), SUDHL10 cells, cytotoxicity induction, CellTiter-Glo, 5 h, median.
Where [10] appears, read: read-out: Cytotox SUDHL10 [M] (median), SUDHL10 cells, cytotoxicity induction, CellTiter-Glo, 5 h, median.
Setting [11] is: Homo sapiens, SU-DHL-5, 72 h, 72 h.
The mark [12] stands for this setting: Homo sapiens, SU-DHL-5, 5 h, read-out: Cytotox SUDHL5 [M] (median), SUDHL5 cells, cytotoxicity induction, CellTiter-Glo, 5 h, median.
Setting [13] is: read-out: Cytotox SUDHL10 [M] (median), SUDHL10 cells, cytotoxicity induction, CellTiter-Glo, 5 h incubation, median.
Setting [14] is: read-out: Cytotox SUDHL5 [M] (median), SUDHL5 cells, cytotoxicity induction, CellTiter-Glo, 5 h incubation, median.
Setting [15] is: read-out: Cytotox SUDHL5 [M] (median), SUDHL5 cells, cytotoxicity induction, CellTiter-Glo, 5 h, median.

Molecules are shown by their SMILES. Values joined by “and” are separate entries in the source; they are usually repeats but may differ in a detail not shown here. Identical values can stand only once. Counter-ions that a name gives are not always drawn. Like-named read-outs stand apart in the source and are kept apart here. Where only a bound is given, the exact number is not on record here.

As a reminder, the EC50 is the midpoint of the concentration-response curve. Lower therefore signals an effect from little substance. `COc1ccc2c(CCCOc3cccc4ccccc34)c(C(=O)O)n3c2c1-c1c(nn(C)c1C)COCCCC3` (single isomer, unassigned; enantiomer 1) [Example 350, 4-methoxy-2,3-dimethyl-7-[3-(naphthalen-1-yloxy)propyl]-2,10,11,12,13,15-hexahydropyrazolo[4′,3′:9,10][1,6]oxazacycloundecino[8,7,6-hi]indole-8-carboxylic acid-N-ethylethanamine Salt (Enantiomer 1)]: the concentration giving a half-maximal response (EC50) is more than 33 µM in series [1] (Homo sapiens, SU-DHL10, 3 h); 24.3 µM in series [2] (Homo sapiens, SU-DHL-5, 3 h); more than 33 µM in series [2]. Also, the IC50 in series [3] (setting [9]) was 3.11e-05 M; in series [3] (setting [10]), more than 3.3e-05 M; in series [4], 1.53e-05 M; in series [5] (setting [11]), 1.38e-05 M; in series [6] (Homo sapiens, A2780, 72 h), more than 3.3e-05 M; in series [7] (setting [12]), 2.07e-05 M. In addition, the IC50 in series [8] was 0.0563 µM.
In the case of `COc1ccc2c(CCCOc3cccc4ccccc34)c(C(=O)O)n3c2c1-c1c(C)nn(C)c1COCCCC3` (single isomer, unassigned; enantiomer 1) [Example 352, 4-methoxy-1,3-dimethyl-7-[3-(naphthalen-1-yloxy)propyl]-1,10,11,12,13,15-hexahydropyrazolo[4′,3′:9,10][1,6]oxazacycloundecino[8,7,6-hi]indole-8-carboxylic Acid Ammonium Salt (Enantiomer 1)], the EC50 is more than 33 µM in series [1] (Homo sapiens, SU-DHL10, 3 h) and more than 33 µM in series [2] (Homo sapiens, SU-DHL-5, 3 h). The IC50 in series [3] (setting [9]) is more than 3.3e-05 M; in series [4] it was 1.05e-05 M; in series [5] (setting [11]), 1.19e-05 M; in series [6] (Homo sapiens, A2780, 72 h), more than 3.3e-05 M; in series [7] (setting [12]), more than 3.3e-05 M; in series [8], 0.0454 µM.
Take `Cc1ccc2c(CCCOc3cccc4ccccc34)c(C(=O)O)n3c2c1-c1c(C)nn(C)c1COCCC3` (single isomer, unassigned; enantiomer 2) [Example 026, (−)-9,11,12-trimethyl-1-[3-(naphthalen-1-yloxy)propyl]-5,6,8,9-tetrahydro-4H-pyrazolo[4′,3′:8,9][1,5]oxazecino[7,6,5-hi]indole-2-carboxylic acid-N-ethylethanamine Salt (Enantiomer 2)]: the 50% effective concentration (EC50) in series [1] was determined as 20.2 µM; in series [2], 23.8 µM. In addition, the IC50 in series [3] (setting [13]) stood at 2.58e-05 M; in series [4] (Homo sapiens, MV4-11, 72 h), 1.14e-05 M; in series [5] (72 h incubation) it was 8.59e-06 M; in series [6], 1.97e-05 M; in series [7] (setting [14]) it was 2.41e-05 M; in series [8], 0.0234 µM.
`Cn1nc2c(c1CN1CCOCC1)-c1cccc3c(CCCOc4cccc5ccccc45)c(C(=O)O)n(c13)CCCCOC2` (single isomer, unassigned; enantiomer 2) [Example 080, 2-methyl-3-(morpholin-4-ylmethyl)-7-[3-(naphthalen-1-yloxy)propyl]-2,10,11,12,13,15-hexahydropyrazolo[4′3′:9,10][1,6]oxazacycloundecino[8,7,6-hi]indole-8-carboxylic acid-N-ethylethanamine Salt (Enantiomer 2)]: the concentration giving a half-maximal response (EC50) in series [1] and in series [2] was more than 33 µM in each case. Moreover, the IC50 in series [3] (setting [13]) was more than 3.3e-05 M; in series [4] it was 1.21e-05 M; in series [5] (72 h incubation), 1.56e-05 M; in series [6] it was 2.41e-05 M; in series [7] (setting [14]) it was more than 3.3e-05 M; in series [8], 0.0312 µM.
Turning to `COCCn1nc(C2CC2)c2c1COCCCCn1c(C(=O)O)c(CCCOc3cccc4c3CCCC4)c3cccc-2c31` (single isomer, unassigned; enantiomer 2) [Example 166, 3-Cyclopropyl-1-(2-methoxyethyl)-7-[3-(5,6,7,8-tetrahydronaphthalen-1-yloxy)propyl]-1,10,11,12,13,15-hexahydropyrazolo[4′,3′:9,10][1,6]oxazacycloundecino[8,7,6-hi]indole-8-carboxylic acid-N-ethylethanamine Salt (Enantiomer 2)], the figures for the half-maximal effective concentration (EC50) in series [1] and in series [2] were more than 33 µM and 30.7 µM, respectively. Moreover, the IC50 was more than 3.3e-05 M in series [3] (setting [13]); 1.88e-05 M in series [4]; 1.26e-05 M in series [5] (72 h incubation); 2.82e-05 M in series [6]; 2.81e-05 M in series [7] (setting [14]); 0.041 µM in series [8].
Take `COCc1nn(C)c2c1-c1cccc3c(CCCOc4cccc5ccccc45)c(C(=O)O)n(c13)CCCCCOC2` (single isomer, unassigned; enantiomer 2) [Example 179, 3-(methoxymethyl)-1-methyl-7-[3-(naphthalen-1-yloxy)propyl]-1,11,12,13,14,16-hexahydro-10H-pyrazolo[3′,4′:3,4][1,7]oxazacyclododecino[5,6,7-hi]indole-8-carboxylic acid-N-ethylethanamine Salt (Enantiomer 2)]: the concentration for a half-maximal effect (EC50) turned out to be 26.9 µM in series [1] and 11.9 µM in series [2]. For the same molecule, the IC50 in series [3] (setting [13]) was > 3.3e-05 M and 3.15e-05 M; in series [4] (Homo sapiens, MV4-11, 72 h), 9.83e-06 M; in series [5] (72 h incubation), 1.48e-05 M; in series [6] it was more than 3.3e-05 M; in series [7] (setting [14]), 1.22e-05 M; in series [8] it was 0.00943 µM.
Consider `CCc1c2c(nn1CCN1CCOCC1)COCCCCn1c(C(=O)O)c(CCCOc3cccc4ccccc34)c3ccc(C)c-2c31` (single isomer, unassigned; enantiomer 2) [Example 206, 3-ethyl-4-methy-2-[2-(morpholin-4-yl)ethyl]-7-[3-(naphthalen-1-yloxy)propyl]-2,10,11,1213,15-hexahydropyrazolo[4′3′:9,10][1,6]oxazacycloundecino[8,7,6-hi]indole-carboxylic Acid (Enantiomer 2)], for which the EC50 in series [1] was determined as 17.5 µM; in series [2], 13.1 µM. The IC50 worked out at 1.6e-05 M in series [3] (setting [13]); 1.92e-05 M in series [4]; 1.03e-05 M in series [5] (72 h incubation); 2.28e-05 M in series [6]; 1.4e-05 M in series [7] (setting [14]); 0.0155 µM in series [8].
Take `Cc1c2c(nn1C)COCCCCn1c(C(=O)O)c(CCCOc3cccc4cc(F)ccc34)c3cccc-2c31` (single isomer, unassigned; enantiomer 2) [Example 302, (+)-7-{3-[(6-fluoronaphthalen-1-yl)oxy]propyl}-2,3-dimethyl-2,10,11,12,13,15-hexahydropyrazolo[4′,3′:9,10][1,6]oxazacycloundecino[8,7,6-hi]indole-8-carboxylic Acid (Enantiomer 2)]: the EC50 in series [1] was determined as 4.2 µM; in series [2], 0.674 µM. For the same molecule, the IC50 in series [3] (setting [10]) was determined as 3.49e-06 M; in series [4], 4.78e-06 M; in series [5] (72 h), 1.99e-06 M; in series [6] (Homo sapiens, A2780, 72 h), 2.25e-05 M; in series [7] (setting [15]), 1.05e-06 M; in series [8] it was 0.00126 µM.
On to `Cn1nc(COCc2ccc(C#N)cc2)c2c1COCCCCn1c(C(=O)O)c(CCCOc3cccc4ccccc34)c3cccc-2c31` (single isomer, unassigned; enantiomer 2) [Example 348, 3-{[(4-cyanobenzyl)oxy]methyl}-1-methyl-7-[3-(naphthalen-1-yloxy)propyl]-1,10,11,12,13,15-hexahydropyrazolo[4′,3′:9,10][1,6]oxazacycloundecino[8,7,6-hi]indole-8-carboxylic acid-N-ethylethanamine Salt (Enantiomer 2)], for which the EC50 came out at 16.8 µM in series [1] and 14.6 µM in series [2]. Moreover, the IC50 in series [3] (setting [10]) is 2.81e-05 M; in series [4], 4.15e-06 M; in series [5] (72 h), 5.12e-06 M; in series [6], 1.46e-05 M; in series [7] (setting [15]), 1.38e-05 M; in series [8], 0.0196 µM.

Values taken from patent US10981932B2, “Macrocyclic indole derivatives” (Bayer Aktiengesellschaft, priority 2016, dated 2021).
